Source: US8148086B2, “Methods to predict and prevent resistance to taxoid compounds” (Children's Medical Center Corporatioin, priority 2005, dated 2012)

Key:
A549 and A549-TR cells = assay: MTT cytotoxicity assay, paclitaxel on cell proliferation/survival; assay type: cell-based, human; conditions: MTT 72 h after paclitaxel addition
Method: (§1) FIGS. 1A and 1B show graphs illustrating the effect of paclitaxel on cell proliferation. A549 and A549 TR cell lines (FIG. 1A) and MES-SA and MES-SA-DX5 cell lines (FIG. 1B) were treated with various concentrations of paclitaxel. 24 hours after 1×10^4 cells/well were seeded in 96 well plates. MTT assay for cell survival was performed 72 h after paclitaxel addition. X axis: concentration of paclitaxel, Y axis-% survival.
(§2) Cell Culture. The human non-small cell lung carcinoma cell line A549 and its Paclitaxel-resistant derivative cell lines were cultured in F-12 Ham nutrient mixture (Invitrogren, Carlsbad, Calif.) supplemented with 10% fetal bovine serum (FBS) at 37° C. in a humidified atmosphere with 5% CO2/95% air. The paclitaxel-resistant cell lines were grown under selective pressure (100 nM paclitaxel), then placed in Paclitaxel-free culture medium 5-7 days before experiments were performed. The uterine sarcoma cells (MES-SA) and the multidrug resistant derivative (MES-SA/DX5) were maintained in McCoy's 5A media (ATCC, Rockville, Md.) supplemented with 10% FBS. […]
(§3) Cytotoxicity Assays. Cell growth inhibition was determined by 3-(4,5-dimethylthiazol-2-yl)-2,5-diphenyltetrazolium (MTT) bromide assay using MTT (Sigma Chemicals, St. Louis, Mo.) reagent in 96-well plates. […] Absorbance was determined using a 96-well SpectraMax plate reader (Molecular Devices, Sunnyvale, Calif.) at 570 nm.

[1] = test system: MES-SA and MES-SA/DX5 cells; assay: as above; assay type: cell-based, human; conditions: MTT 72 h after paclitaxel addition
Method: as §1, §2, §3

With CC(=O)O[C@H]1C(=O)[C@@]2(C)[C@H]([C@H](OC(=O)c3ccccc3)[C@]3(O)C[C@H](OC(=O)[C@H](O)[C@@H](NC(=O)c4ccccc4)c4ccccc4)C(C)=C1C3(C)C)[C@]1(OC(C)=O)CO[C@@H]1C[C@@H]2O [paclitaxel, Paclitaxel] the “difference in sensitivity to paclitaxel, resistant subline vs parental line” value (A549 and A549-TR cells) was “greater than 100 fold” and the “difference in sensitivity to paclitaxel, resistant subline vs parental line” value [1] was “greater than 100 fold”.
